Measurements: paper PMC10282093, “Structural basis of α1A-adrenergic receptor activation and recognition by an extracellular nanobody” (Nature Communications, 2023)
Several values for one entry are separate records, joined by “and”; a condition that tells them apart may be missing. Equal values may be shown once. Read-outs that look alike come from different tables or passages of the source.

Tests used:
α1AAR [1] = target: T1, α1AAR (Homo sapiens, UniProt P35348); experiment: Glo-sensor cAMP signaling assay with engineered Gsq protein in HEK293T cells; details: HEK-293T
T1 sequence (P35348 1-466): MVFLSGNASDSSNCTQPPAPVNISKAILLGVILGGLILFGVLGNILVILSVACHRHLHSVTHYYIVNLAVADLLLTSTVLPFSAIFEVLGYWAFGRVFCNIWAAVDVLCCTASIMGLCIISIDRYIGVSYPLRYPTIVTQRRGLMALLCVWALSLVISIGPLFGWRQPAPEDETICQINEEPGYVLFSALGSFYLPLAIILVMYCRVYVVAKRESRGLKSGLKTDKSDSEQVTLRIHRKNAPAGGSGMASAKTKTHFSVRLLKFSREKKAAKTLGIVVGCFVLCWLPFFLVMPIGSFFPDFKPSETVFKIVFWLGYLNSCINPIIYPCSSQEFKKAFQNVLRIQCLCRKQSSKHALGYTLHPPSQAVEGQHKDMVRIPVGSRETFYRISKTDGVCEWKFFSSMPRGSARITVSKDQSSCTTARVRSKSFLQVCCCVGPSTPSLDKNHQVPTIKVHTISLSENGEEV
Experimental: In brief, pGloSensor™−22F plasmid, receptor plasmid, and Gsq plasmid were transfected into HEK293T cells. At 24 h after transfection, the cells were switched into a CO2-Independent Medium (Gibco) and incubated with GloSensor^TM cAMP reagent. The mixture was then transferred to a 96-well white plate. The 96-well plate is placed at 37 °C in the dark for 1 h, then placed at room temperature in the dark for 1 h before use. […] The result curves were calculated and fitted by GraphPad Prism 9.

HEK293T cells (mock) = experiment: Glo-sensor cAMP assay, mock (negative control); type: cell-based
Experimental: In brief, […] plasmid, receptor plasmid, and Gsq plasmid were transfected into HEK293T cells. At 24 h after transfection, the cells were switched into a CO2-Independent Medium (Gibco) and incubated with GloSensor^TM cAMP reagent. The mixture was then transferred to a 96-well white plate. The 96-well plate is placed at 37 °C in the dark for 1 h, then placed at room temperature in the dark for 1 h before use. […] The result curves were calculated and fitted by GraphPad Prism 9.

α1AAR [2] = target: T2, α1AAR (Homo sapiens, UniProt P35348); experiment: [3H]prazosin radioligand binding, Sf9 membranes; details: for [3H]prazosin binding: SupFig 5b, listed as Tam
T2 sequence (P35348 1-370): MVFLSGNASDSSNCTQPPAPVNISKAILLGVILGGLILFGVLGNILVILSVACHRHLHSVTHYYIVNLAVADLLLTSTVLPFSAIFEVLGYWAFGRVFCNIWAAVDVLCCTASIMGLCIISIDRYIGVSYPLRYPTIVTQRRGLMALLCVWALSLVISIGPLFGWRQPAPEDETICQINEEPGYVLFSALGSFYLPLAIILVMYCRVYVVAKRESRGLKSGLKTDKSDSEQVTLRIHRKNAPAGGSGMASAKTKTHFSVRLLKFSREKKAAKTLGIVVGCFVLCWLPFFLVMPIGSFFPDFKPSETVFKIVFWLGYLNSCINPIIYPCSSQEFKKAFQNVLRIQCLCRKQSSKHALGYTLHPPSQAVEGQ
Experimental: After centrifugation, the pellet was homogenized in binding buffer and used as the membrane fraction in binding assays. […] Receptors were incubated for 1 h at room temperature with various concentrations of ligand in a total volume of 100 µl. After the reaction, the mixture was trapped on Whatman GF/B glass filters. Bound and free radioligands were separated by washing with ice-cold binding buffer. Radioactivity was measured on a MicroBeta2 liquid scintillation counter (PerkinElmer).

NC[C@H](O)c1ccc(O)c(O)c1 [Noradrenaline, noradrenaline]
activation at 0.01 µM (α1AAR [1]; 5 min, read-out: α1AAR activation (Noradrenaline %), 10 nM NA, 5 min): 27.1%
activation at 0.01 µM (α1AAR [1]; 5.5 min, read-out: α1AAR activation (Noradrenaline %), 10 nM NA, […]): 32.4%
activation at 0.01 µM (α1AAR [1]; 0.1 h, read-out: α1AAR activation (Noradrenaline %), 10 nM NA, 6 min): 36.3%
activation at 0.01 µM (α1AAR [1]; 6.5 min, read-out: α1AAR activation (Noradrenaline %), 10 nM NA, […]): 40.4%
activation at 0.01 µM (α1AAR [1]; 7 min, read-out: α1AAR activation (Noradrenaline %), 10 nM NA, 7 min): 44.7%
activation at 0.01 µM (α1AAR [1]; 0.125 h, read-out: α1AAR activation (Noradrenaline %), 10 nM NA, 7.5 min): 51.2%
activation at 0.01 µM (α1AAR [1]; 8 min, read-out: α1AAR activation (Noradrenaline %), 10 nM NA, 8 min): 54.9%
activation at 0.01 µM (α1AAR [1]; 8.5 min, read-out: α1AAR activation (Noradrenaline %), 10 nM NA, 8.5 min): 60.5%
activation at 0.01 µM (α1AAR [1]; 0.175 h, read-out: α1AAR activation (Noradrenaline %), 10 nM NA, 10.5 min): 78.1%
activation at 0.01 µM (α1AAR [1]; 11 min, read-out: α1AAR activation (Noradrenaline %), 10 nM NA, 11 min): 83.6%
activation at 0.01 µM (α1AAR [1]; 11.5 min, read-out: α1AAR activation (Noradrenaline %), 10 nM NA, […]): 88.1%
activation at 0.01 µM (α1AAR [1]; 0.2 h, read-out: α1AAR activation (Noradrenaline %), 10 nM NA, 12 min): 90.9%
activation at 0.01 µM (α1AAR [1]; 12.5 min, read-out: α1AAR activation (Noradrenaline %), 10 nM NA, 12.5 min): 92.5%
activation at 0.01 µM (α1AAR [1]; 13 min, read-out: α1AAR activation (Noradrenaline %), 10 nM NA, 13 min): 95.2%
activation at 0.01 µM (α1AAR [1]; 0.225 h, read-out: α1AAR activation (Noradrenaline %), 10 nM NA, 13.5 min): 98.2%
activation at 0.01 µM (α1AAR [1]; 14 min, read-out: α1AAR activation (Noradrenaline %), 10 nM NA, 14 min): 99.3%
activation at 0.01 µM (α1AAR [1]; 14.5 min, read-out: α1AAR activation (Noradrenaline %), 10 nM NA, […]): 99.1%
activation at 0.01 µM (α1AAR [1]; 0.25 h, read-out: α1AAR activation (Noradrenaline %), 10 nM NA, 15 min): 102%
activation at 0.01 µM (α1AAR [1]; 15.5 min, read-out: α1AAR activation (Noradrenaline %), 10 nM NA, 15.5 min): 102%
activation at 0.01 µM (α1AAR [1]; 16 min, read-out: α1AAR activation (Noradrenaline %), 10 nM NA, 16 min): 101%
activation at 0.01 µM (α1AAR [1]; 17 min, read-out: α1AAR activation (Noradrenaline %), 10 nM NA, 17 min): 99.9%
activation at 0.01 µM (α1AAR [1]; 17.5 min, read-out: α1AAR activation (Noradrenaline %), 10 nM NA, 17.5 min): 99.3%
activation at 0.01 µM (α1AAR [1]; 0.3 h, read-out: α1AAR activation (Noradrenaline %), 10 nM NA, 18 min): 99.3%
activation at 0.01 µM (α1AAR [1]; 18.5 min, read-out: α1AAR activation (Noradrenaline %), 10 nM NA, 18.5 min): 99%
activation at 0.01 µM (α1AAR [1]; 19 min, read-out: α1AAR activation (Noradrenaline %), 10 nM NA, 19 min): 96.4%
activation at 0.01 µM (α1AAR [1]; 0.325 h, read-out: α1AAR activation (Noradrenaline %), 10 nM NA, 19.5 min): 97.2%
activation at 0.01 µM (α1AAR [1]; 20 min, read-out: α1AAR activation (Noradrenaline %), 10 nM NA, 20 min): 96%
activation at 0.01 µM (α1AAR [1]; […], read-out: α1AAR activation (Noradrenaline %), 10 nM NA, 9 min): 64.4%
activation at 0.01 µM (α1AAR [1]; […], read-out: α1AAR activation (Noradrenaline %), 10 nM NA, 16.5 min): 100%
activation at 100 µM (α1AAR [1]; read-out: α1AAR activation (Noradrenaline %), NA Log[M] -4): 86.3%
activation at 1 µM (α1AAR [1]; read-out: α1AAR activation (Noradrenaline %), NA Log[M] -6): 105%
activation at 0.1 µM (α1AAR [1]; read-out: α1AAR activation (Noradrenaline %), NA Log[M] -7): 82.8%
activation at 0.01 µM (α1AAR [1]; read-out: α1AAR activation (Noradrenaline %), NA Log[M] -8): 45.2%
cAMP Glo-sensor signal (Noradrenaline %) (HEK293T cells (mock); NA Log[M] -4, listed as NA): 41.093% and 40.8624% and 40.5271%
cAMP Glo-sensor signal (Noradrenaline %) (HEK293T cells (mock); NA Log[M] -5, listed as NA): 20.1779% and 21.0064% and 19.7646%
cAMP Glo-sensor signal (Noradrenaline %) (HEK293T cells (mock); NA Log[M] -6, listed as NA): 7.941% and 8.285% and 8.539%
cAMP Glo-sensor signal (Noradrenaline %) (HEK293T cells (mock); NA Log[M] -7, listed as NA): 6.318% and 5.663% and 5.337%
cAMP Glo-sensor signal (Noradrenaline %) (HEK293T cells (mock); NA Log[M] -8, listed as NA): 5.486% and 4.494% and 5.028%
cAMP Glo-sensor signal (Noradrenaline %) (HEK293T cells (mock); NA Log[M] -9, listed as NA): 5.1702% and 5.365% and 5.344%
cAMP Glo-sensor signal (Noradrenaline %) (HEK293T cells (mock); NA Log[M] -10, listed as NA): 5.58% and 5.603% and 5.064%
cAMP Glo-sensor signal (Noradrenaline %) (HEK293T cells (mock); NA Log[M] -11, listed as NA): 6.233% and 5.97% and 5.757%

CCOc1ccccc1OCCN[C@H](C)Cc1ccc(OC)c(S(N)(=O)=O)c1 [Tamsulosin, tamsulosin]
[3H]prazosin binding (α1AAR [2]; Tam Log[M] -4): 3.325% and 3.807% and 3.682%
[3H]prazosin binding (α1AAR [2]; Tam Log[M] -5): 5.496% and 6.839% and 6.881%
[3H]prazosin binding (α1AAR [2]; Tam Log[M] -6): 11.244% and 11.6216% and 10.1426%
[3H]prazosin binding (α1AAR [2]; Tam Log[M] -7): 16.0268% and 19.0266% and 22.7187%
[3H]prazosin binding (α1AAR [2]; Tam Log[M] -8): 68.1875% and 65.3346% and 66.6562%
[3H]prazosin binding (α1AAR [2]; Tam Log[M] -9): 89.8993% and 114.569% and 102.297%
[3H]prazosin binding (α1AAR [2]; Tam Log[M] -10): 91.4097% and 102.161% and 96.6541%
[3H]prazosin binding (α1AAR [2]; Tam Log[M] -11): 80.1028% and 92.7732% and 127.271%

B1: Nb6: nanobody that engages the ICL3 of the inactive-state κ-opioid receptor (antibody, V domains shown)
VH: QVQLQESGGGLVQAGESLRLSCAASGTIFRLYDMGWYRRVSGNQRELVASITSGGSTKYGDSVKGRFTISRDNAKNTVYLQMSSLKPEDTAVYYCNAEYRTGIWEELLDGWGQGTQVTVSS
Normalized [3H]prazosin-binding (α1AAR [2]; with 5 μM Nb6): 88.7285% and 103.574% and 107.698%
